Measurements from patent publication US10478437B2, “Combination therapy to enhance the anticancer efficacy of platinum drugs” (University of Pittsburgh-of the Commonwealth System of …, priority 2014, dated 2019).

Test system: cisplatin-resistant ovarian cancer cell line A2780cis
Assay: Caspase-3/7 activity assay (apoptotic cell death), compound alone or with cisplatin
Format: cell-based, human
Settings: for caspase-3/7 activity (Lum), compound with cisplatin / caspase-3/7 activity (Lum), compound alone: Table 1, 20 h; for caspase-3/7 activity (Lum), compound with cisplatin: compound 20 μM with 20 μM cisplatin; for caspase-3/7 activity (Lum), compound alone: compound 20 μM, mean ± S.D. of triplicates; for activity in the screen (Caspase-3/7 activity and microscopic examination), active / inactive: alone or in the presence of cisplatin, in words
Experimental: Cell proliferation was determined using a CyQUANT Direct Cell Proliferation Assay kit (Invitrogen), the activity of caspase-3/7 was measured using a Caspase-Glo 3/7 Assay Systems (Promega, Madison, Wis.), and the MTS calorimetric survival assay was performed using the CellTiter 96 AQueous One Solution Cell Proliferation Assay kit (Promega, Madison, Wis.), according to the manufacturer's instructions. The survival fractions were calculated after setting untreated control cells at 100%. The data were plotted and curve fitted using GraphPad Prism software. To quantify the number of cells with active caspase-3, cells were fixed with 4% paraformaldehyde (Electron microscopy sciences, Hatfield, Pa.), stained with Alexa Fluor-488 conjugated antibody against cleaved caspase-3 (Asp175) (Cell Signaling Technology, Danvers, Mass.) followed by flow cytometry. An FITC Annexin V Apoptosis Detection Kit (BD PharMingen, San Diego, Calif.) was used to quantify apoptotic cells, according to the manufacturer's instructions.
A Caspase-3/7 assay was performed to evaluate the activity of the 36 compounds of FIG. 1 in vitro in the cisplatin-resistant ovarian cancer cell line, A2780cis, alone or in the presence of cisplatin. A microscopic examination of apoptotic morphologic changes was also carried out right before the measurement of Caspase-3/7 activity, in order to confirm that the data on the activation of the Caspase-3/7 following treatment is consistent with morphological change and reflects cell death.

| SMILES | caspase-3/7 activity (Lum), compound with cisplatin [Lum] | caspase-3/7 activity (Lum), compound alone [Lum] | activity in the screen (Caspase-3/7 activity and microscopic examination), active / inactive |
| --- | --- | --- | --- |
| Cc1ccc(-c2csc3[nH]c(=S)n(-c4ccccc4)c(=O)c23)o1 [Compound 1-1] | 28 ± 1 | 12 ± 1 | inactive |
| CC1CCc2c(sc3[nH]c(=S)n(Cc4ccccc4)c(=O)c23)C1 (centres unmarked) [Compound 1-2] | 25 ± 3 | 12 ± 1 | inactive |
| C=CCn1c(=S)[nH]c2scc(-c3ccc(C)c(C)c3)c2c1=O [Compound 1-3] | 28 ± 2 | 12 ± 1 | inactive |
| CN(C)CCn1c(=S)[nH]c2ccc(Cl)cc2c1=O [Compound 1-5] | 32 ± 1 | 13 ± 1 | – |
| Cc1cccc2c(=O)n(CCN(C)C)c(=S)[nH]c12 [Compound 1-7] | 20 ± 3 | 12 ± 2 | – |
| O=C(CCn1c(=S)[nH]c2ccccc2c1=O)N1CCOCC1 [Compound 1-9] | 23 ± 1 | 13 ± 1 | – |
| Cc1[nH]c(=S)[nH]c(=O)c1CCC(=O)N1CCOCC1 [Compound 1-10] | 21 ± 2 | 14 ± 1 | – |
| Cc1[nH]c(=S)[nH]c(=O)c1CCC(=O)NCCc1c[nH]c2ccccc12 [Compound 1-11] | 18 ± 2 | 12 ± 1 | – |
| CC1CCN(CCCn2c(=S)[nH]c3ccccc3c2=O)CC1 [Compound 1-12] | 23 ± 3 | 10 ± 1 | – |
| O=C(CCn1c(=S)[nH]c2ccccc2c1=O)NCC1(c2ccccc2)CCCC1 [Compound 1-13] | 35 ± 3 | 14 ± 1 | – |
| O=C(CCCCCn1c(=S)[nH]c2ccccc2c1=O)NCc1ccc2c(c1)OCO2 [Compound 1-14] | 22 ± 2 | 11 ± 1 | – |
| C=CCn1c(=S)[nH]c2scc(-c3ccc(Oc4ccccc4)cc3)c2c1=O [Compound 1-15] | 28 ± 3 | 12 ± 2 | inactive |
| COCCCn1c(=S)[nH]c2cc(C(=O)Nc3ccc(F)c(F)c3)ccc2c1=O [Compound 1-16] | 18 ± 3 | 10 ± 1 | – |
| O=C(CCn1c(=O)[nH]c2ccccc2c1=O)NCCCOc1ccc(F)cc1 [Compound 1-18] | 19 ± 3 | 12 ± 1 | – |
| COc1ccccc1Cn1c(=S)[nH]c2ccccc2c1=O [Compound 1-20] | 39 ± 3 | 13 ± 1 | – |
| C=CCn1c(=S)[nH]c2cc(C(=O)Nc3cc(OC)c(OC)c(OC)c3)ccc2c1=O [Compound 1-22] | 25 ± 2 | 16 ± 1 | – |
| CN(Cc1ccc(Cl)c(Cl)c1)C(=O)CCn1c(=O)[nH]c(=O)c2ccccc21 [Compound 1-23] | 27 ± 1 | 15 ± 1 | – |
